Results as given in patent US20210115494A1, “Improved method for measurement of microbial biomass” (Mycometer A/S, priority 2018, published 2021).

What was measured:
Format in all cases: biochemical
[1] = tested on: NAHA activity from Cladosporium sphaerospermum; experiment: NAHA activity assay, Cladosporium sphaerospermum; settings: Chladosporium sphaerosperm
Method: (§1) In order to determine NAHA activity in different samples, the technology in WO 98/033934 was employed: A sample containing a dried or freeze dried organism is added to a buffer solution containing 4-Methylumbelliferyl N-acetyl-β-D-glucosaminide in a concentration of 20 μM. The reaction-time is varied depending on the ambient temperature and according to a reaction-time/temperature data sheet previously developed for fungal NAHA activity at various temperatures, and is 30 minutes at 23° C. The resulting fluorescence formed during the reaction time is monitored in a calibrated fluorometer.
(§2) Experiments were conducted where varying concentrations of AgNO3 was added to an analysis substrate. Furthermore, the experiments where performed on dried or freeze dried materials where both intact and fragmented cells are to be expected to be present.
(§3) Experiments analogous to those in example 1 were carried out, but instead of using non-specific inhibitors, the effect of different concentrations of DNJNAc on the NAHA activity in various biomass containing samples was investigated.

[2] = tested on: NAHA activity from Lepidoglyphus destructor (Storage mite); experiment: NAHA activity assay, storage mite; settings: Lepidoglyphus destructor (Storage mite)
Method: as §1, §2, §3

[3] = tested on: NAHA activity from Trichoderma harzianum; experiment: NAHA activity assay, Trichoderma harzianum
Method: as §1, §3

[4] = tested on: NAHA activity from Grass pollen; experiment: NAHA activity assay, grass pollen; settings: Grass pollen
Method: as §1, §2, §3

CC(=O)N[C@H]1CN[C@H](CO)[C@@H](O)[C@@H]1O [DNJNAc, 2-Acetamido-1,2-dideoxynojirimycin] was tested, and the “NAHA activity, 0 μM DNJNAc = 100%” value ([1]; DNJNAc 24.5 μM) was 43%, the “NAHA activity, 0 μM DNJNAc = 100%” value ([1]; DNJNAc 49 μM) was 32% and the “NAHA activity, 0 μM DNJNAc = 100%” value ([1]; DNJNAc 98 μM) was 49%. For the same compound, the “NAHA activity, 0 μM DNJNAc = 100%” value ([1]; DNJNAc 196 μM) was 21%, the “NAHA activity, 0 μM DNJNAc = 100%” value ([2]; DNJNAc 24.5 μM) was 3% and the “NAHA activity, 0 μM DNJNAc = 100%” value ([2]; DNJNAc 49 μM) was 2%. For the same compound, the “NAHA activity, 0 μM DNJNAc = 100%” value ([2]; DNJNAc 98 μM) was 1%, the “NAHA activity, 0 μM DNJNAc = 100%” value ([2]; DNJNAc 196 μM) was 0% and the “NAHA activity, 0 μM DNJNAc = 100%” value ([3]; DNJNAc 24.5 μM) was 120%. For the same compound, the “NAHA activity, 0 μM DNJNAc = 100%” value ([3]; DNJNAc 49 μM) was 93%, the “NAHA activity, 0 μM DNJNAc = 100%” value ([3]; DNJNAc 98 μM) was 92% and the “NAHA activity, 0 μM DNJNAc = 100%” value ([3]; DNJNAc 196 μM) was 83%. For the same compound, the “NAHA activity, 0 μM DNJNAc = 100%” value ([4]; DNJNAc 24.5 μM) was 41%, the “NAHA activity, 0 μM DNJNAc = 100%” value ([4]; DNJNAc 49 μM) was 37% and the “NAHA activity, 0 μM DNJNAc = 100%” value ([4]; DNJNAc 98 μM) was 30%. For the same compound, the “NAHA activity, 0 μM DNJNAc = 100%” value ([4]; DNJNAc 196 μM) was 20%.
